Experimental findings from patent US20230295182A1, “SPIRO DERIVATIVES OF ALPHA-D-GALACTOPYRANOSIDES” (Idorsia Pharmaceuticals Ltd, priority 2020, published 2023) are described below.

The target of one assay is human Gal-1 (hGal-1) (Homo sapiens, UniProt P09382). As to the kind of experiment: Competitive binding assay: biotinylated hGal-1 to microplate-adsorbed asialofetuin (ASF). As to conditions: Activities on hGal-1; binding to ASF-coated plates, 3 hours at 4° C.; mean values; read-out: Gal-1 IC50. In a few lines: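 Plate-adsorbed asialofetuin is incubated 3 h at 4 °C with biotinylated hGal-1, optionally its all-serine-substituted cysteine variant, plus compound dilutions. ABTS color after 1 h streptavidin-peroxidase (80 ng/mL) at 4 °C reports binding. Reported IC50 is a mean across repeat runs.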
Sequence of human Gal-1 (hGal-1) (P09382 2-135 limits assumed): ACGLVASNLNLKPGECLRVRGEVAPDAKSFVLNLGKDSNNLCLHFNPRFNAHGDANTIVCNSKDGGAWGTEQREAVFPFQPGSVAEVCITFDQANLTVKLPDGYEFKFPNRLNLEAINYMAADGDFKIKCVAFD

The next assay concerns the target human Gal-3 (hGal-3) (Homo sapiens (Human), UniProt P17931). As to the kind of experiment: Competitive binding assay: biotinylated hGal-3 to microplate-adsorbed asialofetuin (ASF). As to conditions: Activity on hGal-3; binding to ASF-coated plates, 3 hours at 4° C.; mean values. The method, boiled down: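 Biotinylated hGal-3 (300-1000 ng/mL) binding to plate-adsorbed asialofetuin, with DMSO-diluted compound added, incubated 3 h at 4 °C. After washing, bound protein detected with streptavidin-peroxidase (80 ng/mL, 1 h, 4 °C) and ABTS substrate, read spectrophotometrically. IC50 given as mean of several measurements.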

Sequence of human Gal-3 (hGal-3) (P17931 whole entry): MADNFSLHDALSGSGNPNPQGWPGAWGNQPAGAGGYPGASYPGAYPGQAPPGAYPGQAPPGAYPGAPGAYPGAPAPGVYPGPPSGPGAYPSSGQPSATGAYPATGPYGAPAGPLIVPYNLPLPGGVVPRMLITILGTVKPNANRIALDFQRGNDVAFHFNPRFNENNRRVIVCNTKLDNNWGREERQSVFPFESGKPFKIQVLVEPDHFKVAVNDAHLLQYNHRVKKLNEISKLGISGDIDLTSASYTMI

A word on the IC50: it is the concentration that gives 50% inhibition. For the compound `CO[C@@H]1[C@@H](n2cc(-c3ccc(C)c(F)c3F)nn2)[C@@H](O)[C@@H](CO)O[C@@H]1CN1C=NC2(CCCCC2)C1` [Example 4.04, (2R,3R,4S,5R,6R)-6-((1,3-diazaspiro[4.5]dec-1-en-3-yl)methyl)-4-(4-(2,3-difluoro-4-methylphenyl)-1H-1,2,3-triazol-1-yl)-2-(hydroxymethyl)-5-methoxytetrahydro-2H-pyran-3-ol], the IC50 on human Gal-1 (hGal-1) is 1.3 µM; on human Gal-3 (hGal-3), 0.081 µM.
The corresponding values for “(2R,3R,4S,5R,6R)-6-((8,8-difluoro-1-oxa-2-azaspiro[4.5]dec-2-en-3-yl)methyl)-4-(4-(2,3-difluoro-4-methylphenyl)-1H-1,2,3-triazol-1-yl)-2-(hydroxymethyl)-5-methoxytetrahydro-2H-pyran-3-ol [Example 2.27]” are 11.5 µM and 0.081 µM.
